# Assay results from US20050187288A1, “Beta-lapachone and methods of treating cancer” (priority 2004, published 2005).
# How the values were obtained:
# ASPC-1 = experiment: Colony formation assay, combination with Taxol; type: cell-based, human; settings: β-Lapachone 4 μM, Taxol 0.2 μM, 4 hours
# Protocol: Control wells were treated with equivalent volumes of DMSO. After 4 hours cells were rinsed and fresh medium is added. Cultures were observed daily for 10-20 days and then were fixed and stained. […] DNA laddering formation and annexin staining indicate that cell death is due to apoptosis.
# G480 lung cancer cells = experiment: Colony formation assay, single agents and combination; type: cell-based; settings: G480; β-lapachone 4 μM, 4 hours; average (SEM) of three experiments
# Text: Control plates received the same volume of DMSO alone. […] Treated wells were presented as percentage of control. Data were presented as an average (+SEM) from three independent experiments.
# 60 cancer cell lines = settings: FDA approved agents, publicly available data; cited from earlier work
Structure (SMILES),"Colonies, Percentage of control (ASPC-1)",Colonies (percent control) (G480 lung cancer cells),mean LC50 across all cells compared with the mean of β-lapachone (60 cancer cell lines)
"CC(=O)O[C@H]1C(=O)[C@@]2(C)[C@H]([C@H](OC(=O)c3ccccc3)[C@]3(O)C[C@H](OC(=O)[C@H](O)[C@@H](NC(=O)c4ccccc4)c4ccccc4)C(C)=C1C3(C)C)[C@]1(OC(C)=O)CO[C@@H]1C[C@@H]2O [Taxol ®, paclitaxel, reference compound]",71 (0.8) Percentage of control,39 (2.6) percent control,–
O=C1c2c(O)ccc(O)c2C(=O)c2c(NCCNCCO)ccc(NCCNCCO)c21 [mitoxantrone],–,–,equals it
